Values of other authors in US10045993B2, “Pharmaceutical preparation containing entecavir as active ingredient, and preparation method therefor” (CTC BIO, INC., priority 2014, dated 2018).

Conditions: pH 7.9, 25° C. (room temperature)

C=C1[C@H](CO)[C@@H](O)C[C@@H]1n1cnc2c(=O)[nH]c(N)nc21 [Entecavir, [1-S-(1α,3α,4β)]-2-amino-1,9-dihydro-9-[4-hydroxy-3-(hydroxymethyl)-2-methylenecyclopentyl]-6H-purin-6-one]
moisture solubility: 2400 µg/mL
